80 compounds from the METLIN SMRT retention time set (Domingo-Almenara et al. 2019) can be followed below.

Molecules are shown by their SMILES.

The nature of the data set: gradient 5% acetonitrile 3 min, to 50% in 2 min, to 85% in 15 min, held 3 min, 100 µL/min. Particulars: column: Zorbax Extend-C18 2.1 x 50 mm; eluents: water / acetonitrile, 0.1% formic acid. Put shortly: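 Each retention time is based on an adduct peak selected computationally and verified by manual inspection. Measurements used HPLC–quadrupole time-of-flight mass spectrometry in positive and negative ionization mode on mixtures of ~100 pure standards. Chromatography ran on a Zorbax Extend-C18 column (2.1 × 50 mm, 1.8 μm) at 100 μL/min with water and acetonitrile, each containing 0.1% formic acid, and dead and dwell volumes of 40 μL and 900 μL.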
Consider `CCC(C)NC(=O)C1CCN(C(=O)Nc2ccc(NC(=O)Nc3ccccc3)cc2)CC1` (stereo not given), for which the RP-LC retention time is 748 s.

In turn, `Cc1cc(C)cc(OCC(=O)Nc2nc(-c3ccccc3)cs2)c1` registered an RP-LC retention time of 1210 s.

Compound `Cc1ccc(C)c(NC(=O)Cn2c(N3CCOCC3)nc(C)cc2=O)c1` yielded an RP-LC retention time of 770 s.

Consider `O=C(Nc1cc(F)ccc1F)Nc1c(-c2ccc(F)cc2)nc2ccccn12`, for which the RP-LC retention time stood at 706 s.

Consider `CCN1CCN(CCCNS(=O)(=O)c2cccc(-c3nc(-c4ccc(C)cc4)no3)c2)CC1`, for which the RP-LC retention time worked out at 690 s.

As to `Cc1ccc(CNC(=O)C2(C)CCN(C(=O)Nc3ccc4c(c3)OCCO4)CC2)cc1`, the RP-LC retention time was 751 s.

Compound `CN(C)c1cccc(C(=O)Nc2cc(-c3ccsc3)no2)c1` showed an RP-LC retention time of 927 s.

`O=C(NC1CCCCC1)C1CCCN(S(=O)(=O)c2c[nH]c(C(=O)N3CCCC3)c2)C1` (stereo not given) registered an RP-LC retention time of 759 s.

In the case of `Cc1cc(=O)n(CC(=O)Nc2cccc(Cl)c2)c(N2CCc3ccccc3C2)n1`, the RP-LC retention time was found to be 859 s.

With `CCOc1ccc(-n2ccnc(NC(=O)Nc3ccc(F)cc3)c2=O)cc1`, the RP-LC retention time amounted to 985 s.

For the compound `CN(C)S(=O)(=O)c1ccc(C(=O)Nc2nc3c(s2)CCc2ccccc2-3)cc1`, the RP-LC retention time amounted to 1110 s.

Compound `CCN(CC)c1ccc(-c2noc(CN3CCN(c4cccc(C)c4)CC3)n2)cn1` came in with an RP-LC retention time of 865 s.

`CCN(C(=O)Cn1nc2cc(C)nc(Nc3ccc(C)c(C)c3)n2c1=O)c1ccccc1` gave an RP-LC retention time of 1230 s.

In turn, `Cc1ccc(-c2nnc(SCc3noc(CCC(=O)Nc4cc(C)on4)n3)o2)cc1` returned an RP-LC retention time of 846 s.

Regarding `CC(=O)N1CCc2c(sc(NC(=O)c3cc(=O)c4ccccc4o3)c2C#N)C1`, the RP-LC retention time worked out at 670 s.

As to `COc1ccc(CCC(=O)N2CCN(c3nccn3-c3cccc(Cl)c3)CC2)cc1`, the RP-LC retention time was 617 s.

Turning to `CC(C)c1nc(NCc2ccc(F)cc2F)ncc1C(=O)O`, the RP-LC retention time was determined as 875 s.

Turning to `O=C(Nc1nc(-c2cccc3ccccc23)cs1)c1ccncc1`, the RP-LC retention time came out at 904 s.

Turning to `CC1CCN(c2nn(CC(=O)Nc3ccccc3F)c(=O)c3ccccc23)CC1`, the RP-LC retention time is 1090 s.

`COc1cc(Cl)c(NS(=O)(=O)c2c(C)sc(C)c2-c2n[nH]c(C)c2C)c(OC)c1` showed an RP-LC retention time of 980 s.

Take `CN(CC1CCOCC1)C(=O)Nc1ccc2c(c1)OCCO2`: the RP-LC retention time is 670 s.

In the case of `COc1ccc(CC(=O)N2CCCC2c2c(C)noc2C)cc1OC` (stereo not given), the RP-LC retention time was found to be 696 s.

For the compound `O=C(Nc1ccccc1F)C1CCN(S(=O)(=O)c2cc(C(=O)N3CCOCC3)cs2)CC1`, the RP-LC retention time worked out at 742 s.

In the case of `O=C(Nc1nnc(SCc2nnc(-c3ccc4c(c3)OCO4)o2)s1)C1CC1`, the RP-LC retention time stood at 750 s.

In turn, `CCc1nc2cc(N3CCC(C(=O)NCCN4CCCCC4)CC3)cnc2nc1CC` came in with an RP-LC retention time of 580 s.

The compound `Cc1cccc(NC(=O)N2CCC3(C2)C(=O)Nc2ccccc23)c1` (stereo not given) had an RP-LC retention time of 727 s.

The compound `N#Cc1ncc(Cl)c2ccccc12` displayed an RP-LC retention time of 1020 s.

Turning to `CC(=O)N1c2ccc(S(=O)(=O)N3CCCCC3)cc2CC1C(=O)Nc1cc(C)ccc1C` (stereo not given), the RP-LC retention time was 912 s.

With `O=C(NCCc1ccc(Cl)cc1)C(=O)Nc1ccc(F)cc1F`, the RP-LC retention time was found to be 971 s.

For `CCOc1ccc2c(n1)CCN(C(=O)NC1CCCCC1)C2`, the RP-LC retention time is 822 s.

In turn, `Cc1ccc(-c2nc3ccc(C)cn3c2NC(=O)c2ccc(Cl)cc2)cc1` came in with an RP-LC retention time of 763 s.

Turning to `CCc1nc2cc(-c3noc(-c4sc(C)nc4C)n3)ccc2o1`, the RP-LC retention time came out at 1060 s.

`Cc1ccc2nc(C(=O)NCc3cc(F)ccc3F)cn2c1`: the RP-LC retention time was 655 s.

As for `O=C(Nc1cnc(N2CCCC2)nc1)c1cccc(Cl)c1`, the RP-LC retention time was found to be 765 s.

The compound `CCn1ccnc1CC1COc2ccccc2O1` (stereo not given) displayed an RP-LC retention time of 682 s.

In turn, `O=C(Nc1cccc(-c2cn3cccnc3n2)c1)c1c(F)cccc1F` came in with an RP-LC retention time of 668 s.

In the case of `COc1ccc(NC(=O)N2CCN(Cc3nc4ccccc4o3)CC2)cc1`, the RP-LC retention time is 642 s.

As to `CC(C)Cn1c(=O)c2cc(C(=O)NCCC3CCN(C(C)C)CC3)nn2c2ccccc21`, the RP-LC retention time turned out to be 694 s.

Consider `N#Cc1ccc(NC(=O)C2CCCN(S(=O)(=O)c3cc(-c4noc(C5CCC5)n4)cs3)C2)cc1` (stereo not given), for which the RP-LC retention time was 1120 s.

Take `CC1=CC(C)(C(Cl)(Cl)Cl)C(C)=C/C1=N/O` (stereo not given): the RP-LC retention time was found to be 1100 s.

`COc1cccc(CNC(=O)c2nsc(C(=O)N3CCN(c4ccccn4)CC3)c2N)c1` showed an RP-LC retention time of 660 s.

`O=C(c1ccccc1Br)N1CCc2nc[nH]c2C1` displayed an RP-LC retention time of 563 s.

`CC1CN(Cc2nc3c(c(=O)n(C)c(=O)n3C)n2Cc2ccc(Br)cc2)CC(C)O1` (stereo not given): the RP-LC retention time came out at 755 s.

`Cc1ccc(-n2ccn3cc(-c4ccc(F)cc4)nc3c2=O)cc1Cl` displayed an RP-LC retention time of 924 s.

`CCOc1cccc(-c2noc(Cn3ncn4nc(-c5ccc(F)cc5)cc4c3=O)n2)c1` yielded an RP-LC retention time of 860 s.

`CC(C)C(=O)NCc1csc(C2CCCN(C(=O)c3cc(F)ccc3F)C2)n1` (stereo not given) gave an RP-LC retention time of 730 s.

`CCCn1cc(CCNC(=O)Nc2ccc3c(c2)OCCO3)c2cccnc21` yielded an RP-LC retention time of 704 s.

`COc1ccccc1-c1nc(Cn2nnc(-c3nc(-c4ccccc4C)no3)c2C)c(C)o1` yielded an RP-LC retention time of 1180 s.

Take `CC(=O)Nc1ccc(NC(=O)c2cc3sccc3n2Cc2ccc(F)cc2)cc1`: the RP-LC retention time came out at 911 s.

`COc1cccc(CN2CCC3(CC2)C(OC)C(=O)N3c2cccc(F)c2)n1` (stereo not given): the RP-LC retention time turned out to be 703 s.

In turn, `CC(C)C(=O)Nc1ccc(C2(C(=O)O)CCC2)cc1` displayed an RP-LC retention time of 720 s.

The compound `Cc1ccc(CNC(=O)c2nnc(-c3ccc(S(=O)(=O)N(C)C)cc3)o2)cc1` showed an RP-LC retention time of 892 s.

As for `Cc1ccc(NS(=O)(=O)c2cc3n(c2)CCCNC3=O)c(C)c1`, the RP-LC retention time turned out to be 678 s.

With `O=C1CC(c2cc(F)cc(F)c2)Cc2nc(N3CCN(c4ccccc4F)CC3)ncc21` (stereo not given), the RP-LC retention time came to 1300 s.

Compound `C=CCn1nc2c(C)c(C)nc(-c3cccnc3)n2c1=O` gave an RP-LC retention time of 631 s.

As for `Cn1cc(S(=O)(=O)N2CCCCC2)cc1C(=O)Nc1ccc2c(c1)OCO2`, the RP-LC retention time came out at 924 s.

Turning to `O=C(NC1CCN(c2cc(-c3cccs3)[nH]n2)C1)c1ccncc1` (stereo not given), the RP-LC retention time was found to be 612 s.

As for `O=C(Nc1c(-c2ccc(F)cc2)nc2ccccn12)c1ccc(F)cc1`, the RP-LC retention time amounted to 671 s.

Turning to `CCn1cnc(S(=O)(=O)N2CCC(C(=O)Nc3nccs3)CC2)c1`, the RP-LC retention time stood at 636 s.

Consider `CCN(CC)CCn1c(=O)c(Cc2ccc(OC)cc2)nc2ccccc21`, for which the RP-LC retention time worked out at 720 s.

Take `Cc1noc(C2CN(C(=O)Nc3cccc(F)c3C)CC23CCOCC3)n1` (stereo not given): the RP-LC retention time stood at 1030 s.

`CCc1cccc(NC(=O)C2CCCN(S(=O)(=O)c3c[nH]c(C(=O)N4CCCCCC4)c3)C2)c1` (stereo not given) registered an RP-LC retention time of 911 s.

`Cc1ccccc1-c1cn2ccn(-c3cccc(Cl)c3)c(=O)c2n1` had an RP-LC retention time of 883 s.

As to `O=C(COc1ccc(F)cc1)Nc1ccccc1NC(=O)c1ccccc1Cl`, the RP-LC retention time is 853 s.

Compound `Cc1cc(C)cc(NC(=O)c2cnn3c2CCCC3)c1` came in with an RP-LC retention time of 603 s.

As to `Cc1cccc(NC(=O)C2CCCN(S(=O)(=O)N3CCC(C)CC3)C2)c1C` (stereo not given), the RP-LC retention time turned out to be 1030 s.

`O=C(Nc1ccc(OCC(=O)N2CCN(c3cccc(Cl)c3)CC2)nc1)C1CC1` yielded an RP-LC retention time of 836 s.

In turn, `Cc1nc(CC(=O)NCc2ccc(F)c(Cl)c2)sc1C(=O)NC1CC1` yielded an RP-LC retention time of 708 s.

Turning to `COc1ccc(CN2CCCN(c3cc(-c4ccccc4)[nH]n3)CC2)c(O)c1`, the RP-LC retention time worked out at 620 s.

Turning to `COc1cc(NC(=O)N2CCC(n3c(C)nc4cccnc43)CC2)cc(OC)c1`, the RP-LC retention time amounted to 637 s.

Compound `Cc1ccc(-c2ncn(C3CCCCC3)c2-c2ccc(C(=O)N3CCN(c4ncccn4)CC3)o2)cc1` showed an RP-LC retention time of 748 s.

`CCC(C)NC(=O)C1CCCN(C(=O)Nc2ccc(NC(=O)Nc3ccccc3)cc2)C1` (stereo not given): the RP-LC retention time is 730 s.

For `O=C(Nc1ccc2nc3n(c(=O)c2c1)CCCCC3)C(=O)N1CCCCCC1`, the RP-LC retention time was 729 s.

With `Cc1nnc2ccc(-c3noc(-c4ccccc4Br)n3)cn12`, the RP-LC retention time turned out to be 908 s.

Compound `CC(C(=O)N1CCN(c2ccccn2)CC1)n1c2ccccc2c2cnn(C)c(=O)c21` (stereo not given) showed an RP-LC retention time of 627 s.

Compound `CCC(C)NC(=O)C1CCN(S(=O)(=O)c2cc(-c3noc(C(C)C)n3)sc2C)CC1` (stereo not given) registered an RP-LC retention time of 1020 s.

Consider `CCn1cnc(S(=O)(=O)N2CCC(C(=O)N3CCc4ccccc43)CC2)c1`, for which the RP-LC retention time worked out at 754 s.

In the case of `COc1cccc(-c2nnc(Cc3nc(-c4ccc(OC)c(OC)c4)no3)o2)c1`, the RP-LC retention time was 894 s.

Take `COc1ccc(NC(=O)N2CCC(n3c(CC(C)C)nc4cccnc43)CC2)c(OC)c1`: the RP-LC retention time was found to be 676 s.

In turn, `Cc1ccc(C(=O)N2CC(c3nc(CCOCC4CC4)no3)C2)s1` showed an RP-LC retention time of 806 s.
